Measurements taken from patent US9686971B2, “Methods for testing anti-thrombotic agents” (The Trustees of Columbia University in the City of New York, priority 2006, dated 2017).

Columns and labels:
murine αIIbβ3 = target: T1, murine αIIbβ3 (Mus musculus, UniProt O54890+Q9QUM0); conditions: cited from earlier work
T1 sequence (Q9QUM0 32-1033): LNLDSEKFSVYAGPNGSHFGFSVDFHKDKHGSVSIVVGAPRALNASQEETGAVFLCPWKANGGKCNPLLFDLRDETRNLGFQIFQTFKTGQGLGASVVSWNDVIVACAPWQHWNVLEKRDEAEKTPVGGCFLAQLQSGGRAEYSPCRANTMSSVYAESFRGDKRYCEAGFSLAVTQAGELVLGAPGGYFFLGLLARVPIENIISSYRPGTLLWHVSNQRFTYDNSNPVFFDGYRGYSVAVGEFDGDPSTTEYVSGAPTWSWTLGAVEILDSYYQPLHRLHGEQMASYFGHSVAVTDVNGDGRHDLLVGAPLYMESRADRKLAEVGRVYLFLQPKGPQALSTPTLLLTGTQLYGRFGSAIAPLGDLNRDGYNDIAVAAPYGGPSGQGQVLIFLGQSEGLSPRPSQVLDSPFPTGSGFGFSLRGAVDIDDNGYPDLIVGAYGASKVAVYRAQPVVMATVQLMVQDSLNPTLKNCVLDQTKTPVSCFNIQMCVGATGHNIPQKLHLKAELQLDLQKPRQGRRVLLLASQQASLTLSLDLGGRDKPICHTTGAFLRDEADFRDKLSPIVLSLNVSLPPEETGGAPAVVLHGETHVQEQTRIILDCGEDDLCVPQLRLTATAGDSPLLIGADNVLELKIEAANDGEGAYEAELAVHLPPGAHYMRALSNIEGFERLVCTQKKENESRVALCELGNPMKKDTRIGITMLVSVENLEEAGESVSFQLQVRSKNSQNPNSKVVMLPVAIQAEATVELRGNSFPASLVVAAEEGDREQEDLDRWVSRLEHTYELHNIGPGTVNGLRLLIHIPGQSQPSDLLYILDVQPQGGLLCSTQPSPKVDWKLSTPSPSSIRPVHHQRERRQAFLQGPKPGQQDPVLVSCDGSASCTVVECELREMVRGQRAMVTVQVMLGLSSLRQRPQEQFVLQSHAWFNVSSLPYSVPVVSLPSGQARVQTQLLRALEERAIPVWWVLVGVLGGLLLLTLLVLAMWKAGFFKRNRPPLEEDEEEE
T1 sequence (O54890 26-787): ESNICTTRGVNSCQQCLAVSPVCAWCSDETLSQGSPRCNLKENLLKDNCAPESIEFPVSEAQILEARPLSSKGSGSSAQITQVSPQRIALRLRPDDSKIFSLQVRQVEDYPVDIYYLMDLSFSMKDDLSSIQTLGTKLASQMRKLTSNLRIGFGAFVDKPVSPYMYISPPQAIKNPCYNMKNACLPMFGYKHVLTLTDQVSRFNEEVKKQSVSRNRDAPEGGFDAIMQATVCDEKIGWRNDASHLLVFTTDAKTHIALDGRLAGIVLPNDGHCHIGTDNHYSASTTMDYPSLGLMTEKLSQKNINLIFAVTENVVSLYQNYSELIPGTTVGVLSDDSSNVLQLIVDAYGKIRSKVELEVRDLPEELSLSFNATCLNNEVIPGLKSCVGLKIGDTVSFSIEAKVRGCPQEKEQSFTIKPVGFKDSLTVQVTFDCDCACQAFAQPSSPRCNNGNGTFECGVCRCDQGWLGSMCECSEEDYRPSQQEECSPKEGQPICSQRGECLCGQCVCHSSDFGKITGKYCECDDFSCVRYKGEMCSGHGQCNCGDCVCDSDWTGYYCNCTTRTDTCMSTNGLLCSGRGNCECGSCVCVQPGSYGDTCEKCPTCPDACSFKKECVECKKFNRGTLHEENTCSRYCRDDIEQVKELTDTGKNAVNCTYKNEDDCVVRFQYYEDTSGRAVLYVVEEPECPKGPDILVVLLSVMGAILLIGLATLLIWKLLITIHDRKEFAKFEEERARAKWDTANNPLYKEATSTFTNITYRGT

human platelets = test: Tail bleeding assay, human platelet-induced hemostasis in homozygous VWF^1326R>H mice; format: in vivo, mouse; conditions: for human platelet-induced hemostatic clot / plug formation (words): PLAVIX 50 mg/kg oral day before and 2 h prior, ReoPro 0.25 mg/kg iv bolus then 0.125 μg/kg/min, 5 min after human platelets
Protocol: This assay provides an indirect measure of the ability of platelets and VWF to support hemostasis by interacting with the injured vessel wall. It also indirectly determines the function of multiple receptors and ligands on platelets that are required to form a hemostatic plug. […] It is performed by immersing the severed tip (10 mm) of the animal's tail in isotonic saline at 37° C. and monitoring the length of time required for bleeding to cease. Homozygous mutant mice will be infused with an equal volume of either saline or purified human platelets. Platelet specific antibodies or drugs will be administered as described above and their ability to prolong bleeding time evaluated. All experiments will be stopped at 10 min by cauterizing the tail (51).
Tail cuts were performed 5 min after completion of the infusion of platelets. PLAVIX and ReoPro® were obtained from the research pharmacy at CUMC. For studies involving PLAVIX, animals received a 50 mg/kg oral dose of the drug the day before and 2 h prior to the administration of human platelets.

abciximab: Fab fragment of the chimeric human-mouse monoclonal antibody 7E3, which blocks the function of αIIbβ3 on human platelets
binding / function of murine αIIbβ3 (murine αIIbβ3): does not bind or disrupt the function of murine αIIbβ3 | human platelet-induced hemostatic clot / plug formation (words) (human platelets): completely disrupted | human platelet-induced hemostatic clot / plug formation (words) (human platelets; listed as ReoPro): prevented the formation of a hemostatic plug | mean bleeding time (human platelets; homozygous VWF^1326R>H mice, given after infusion of human platelets): 579 s
